Laboratory results from patent US20040038944A1, “Compositions and methods of preventing or reducing the risk or incidence of skeletal injuries in horses” (Merck & Co., Inc., priority 2000, published 2004).

Columns and labels:
[1] = test system: bone specific alkaline phosphatase; conditions: Groups 2-4, i.v., 56 days stall rest; also reduced in placebo
Description: (§1) Bone metabolism is monitored using standard techniques, i.e. serum assays to determine levels of markers of bone turnover, bone resorption and bone formation and ultrasound is used to assess changes in bone density.
(§2) Materials and Methods: Sixteen healthy adult thoroughbred horses (eight mares and eight male castrates) which had previously been running at pasture for at least 4 months are used.
(§3) The horses are randomly allocated to 4 treatment groups of four horses, each containing two mares and two male castrates. Serum samples are collected and ultrasound measurements are taken on three occasions directly before commencement of stall rest. Assays are conducted on the serum samples to determine pre-confinement levels of C-telopeptides (C-Tx; a collagen breakdown product that is a marker of bone resorption); osteocalcin (a marker of bone turnover) and bone specific alkaline phosphatase (a marker of bone formation). Ultrasound is used to measure the speed of transmission of sound waves through the bone.
(§4) Stall rest is commenced the day of first treatment. Serum samples are taken twice weekly and ultrasound measurements are taken each 14 days for the 56 days of the study to monitor changes in bone metabolism markers and in bone density relative to pre-confinement values. At the end of the study the horses are returned to the pasture.

C-telopeptides (C-Tx) = conditions: alendronate injection, horses confined to stall rest for 56 days, versus saline
Description: as §1, §2, §3, §4

Compound: NCCCC(O)(P(=O)(O)O)P(=O)(O)O [alendronate, 4-amino-1-hydroxybutylidene-1,1-bisphosphonic acid monosodium trihydrate]
- marker for bone formation (bone specific alkaline phosphatase) [1]: reduced
- bone resorption (result in words) (C-telopeptides (C-Tx)): suppressed bone resorption
